Measured values as given in US7932270B2 (Cytokinetics, Inc., priority 2006, dated 2011).

Biological target: T1, chicken gizzard smooth muscle myosin subfragment-1 chemically crosslinked to cardiac or skeletal actin (Gallus gallus, UniProt P10587)
T1 construct: chicken gizzard smooth muscle myosin subfragment-1; from tissue; host or cells: chicken gizzard
Test: Smooth muscle myosin ATPase dose response assay (pyruvate kinase/horseradish peroxidase/pyruvate oxidase-coupled, amplex red fluorescence)
Type: biochemical
Details: read-out: IC50 Arithmetic Mean
Summary of the method: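 Amplex red fluorescence (480 nm excitation, 615 nm emission) tracked ATP hydrolysis by smooth muscle S1 crosslinked to actin with carbodiimide/N-hydroxysuccinimide. Reactions contained 0.15 mM ATP and 100 mM KCl at pH 7.00, 22° C. IC50 came from a four-parameter logistic fit.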

T1 sequence (P02607 2-151): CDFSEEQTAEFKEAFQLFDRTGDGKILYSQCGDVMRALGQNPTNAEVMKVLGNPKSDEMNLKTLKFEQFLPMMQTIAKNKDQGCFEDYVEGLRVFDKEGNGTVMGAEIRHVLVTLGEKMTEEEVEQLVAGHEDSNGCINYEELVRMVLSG
T1 sequence (P10587 84-789): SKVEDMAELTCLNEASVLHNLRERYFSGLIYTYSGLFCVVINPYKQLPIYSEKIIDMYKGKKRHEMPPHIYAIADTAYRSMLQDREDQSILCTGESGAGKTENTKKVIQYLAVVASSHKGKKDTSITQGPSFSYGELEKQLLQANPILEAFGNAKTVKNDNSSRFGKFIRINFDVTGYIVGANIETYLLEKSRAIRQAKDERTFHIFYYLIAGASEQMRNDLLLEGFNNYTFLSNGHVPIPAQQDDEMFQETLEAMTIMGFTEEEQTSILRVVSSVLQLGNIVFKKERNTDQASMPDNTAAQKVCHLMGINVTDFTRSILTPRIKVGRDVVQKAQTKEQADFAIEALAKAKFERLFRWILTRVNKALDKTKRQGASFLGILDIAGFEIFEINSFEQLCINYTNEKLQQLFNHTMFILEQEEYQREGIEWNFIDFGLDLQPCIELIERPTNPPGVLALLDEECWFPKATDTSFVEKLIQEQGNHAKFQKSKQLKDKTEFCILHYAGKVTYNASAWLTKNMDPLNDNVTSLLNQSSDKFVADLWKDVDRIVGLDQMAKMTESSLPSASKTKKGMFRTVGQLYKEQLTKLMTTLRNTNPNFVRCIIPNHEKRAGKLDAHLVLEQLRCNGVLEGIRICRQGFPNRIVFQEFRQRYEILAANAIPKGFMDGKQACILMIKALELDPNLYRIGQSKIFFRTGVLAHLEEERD

IC50 [µM] | Compound
0.209 | N#Cc1ccccc1-c1ccc(C(=O)NCC(CO)CO)c(NCCc2cccc(F)c2)n1 [(6-(2-cyanophenyl)-2-{[2-(3-fluorophenyl)ethyl]amino}(3-pyridyl))-N-[3-hydroxy-2-(hydroxymethyl)propyl]carboxamide]
19.1 | O=C(NCc1cccnc1)c1ccc(-c2cccnc2)nc1NCCc1ccccn1 [N-(3-pyridylmethyl){6-(3-pyridyl)-2-[(2-(2-pyridyl)ethyl)amino](3-pyridyl)}carboxamide]
0.444 | N#Cc1ccccc1-c1ccc(C(=O)NCCNCCN)c(NCCc2cccc(F)c2)n1 [N-{2-[(2-aminoethyl)amino]ethyl}(6-(2-cyanophenyl)-2-{[2-(3-fluorophenyl)ethyl]amino}(3-pyridyl))carboxamide]
51.6 | NC(=O)CNCC(O)c1ccc(-c2ccccc2)nc1NCCc1cccc(F)c1 (stereo not drawn) [2-{[2-(2-{[2-(3-fluorophenyl)ethyl]amino}-6-phenyl(3-pyridyl))-2-hydroxyethyl]amino}acetamide]
8.66 | O=C(NCc1cccnc1)c1ccc(-c2nccs2)nc1NCCc1ccccn1 [{2-[(2-(2-pyridyl)ethyl)amino]-6-(1,3-thiazol-2-yl)(3-pyridyl)}-N-(3-pyridylmethyl)carboxamide]
0.439 | N#Cc1ccccc1-c1ccc(C(=O)NCC2CCCN2)c(NCCc2cccc(F)c2)n1 (stereo not drawn) [(6-(2-cyanophenyl)-2-{[2-(3-fluorophenyl)ethyl]amino}(3-pyridyl))-N-(pyrrolidin-2-ylmethyl)carboxamide]
0.274 | CNC(=O)[C@@H](CN)NC(=O)c1ccc(-c2ccccc2C#N)nc1NCCc1cccc(F)c1 [(2R)-3-amino-2-[(6-(2-cyanophenyl)-2-{[2-(3-fluorophenyl)ethyl]amino}(3-pyridyl))carbonylamino]-N-methylpropanamide]
0.116 | N#Cc1ccccc1-c1ccc(C(=O)NC[C@H]2CCCN2C(=O)CO)c(NCCc2cccc(F)c2)n1 [N-{[(2R)-1-(2-hydroxyacetyl)pyrrolidin-2-yl]methyl}(6-(2-cyanophenyl)-2-{[2-(3-fluorophenyl)ethyl]amino}(3-pyridyl))carboxamide]
2.63 | CC(=O)N[C@@H](CNC(=O)c1ccc(-c2ccccc2C#N)nc1NCCc1cccc(F)c1)C(N)=O [N-{(1S)-1-carbamoyl-2-[(6-(2-cyanophenyl)-2-{[2-(3-fluorophenyl)ethyl]amino}(3-pyridyl))carbonylamino]ethyl}acetamide]
0.836 | O=C(NCc1ccno1)c1ccc(-c2ccccc2)nc1NCCc1ccccn1 [N-(isoxazol-5-ylmethyl){6-phenyl-2-[(2-(2-pyridyl)ethyl)amino](3-pyridyl)}carboxamide]
0.92 | N#Cc1ccccc1-c1ccc(C(=O)NCc2cccnc2)c(NCCC2CCCO2)n1 (stereo not drawn) [{6-(2-cyanophenyl)-2-[(2-oxolan-2-ylethyl)amino](3-pyridyl)}-N-(3-pyridylmethyl)carboxamide]
36.7 | O=C(NCc1cccnc1)c1ccc(-c2ccccc2)nc1NCCc1ccc(O)cc1 [(2-{[2-(4-hydroxyphenyl)ethyl]amino}-6-phenyl(3-pyridyl))-N-(3-pyridylmethyl)carboxamide]
0.056 | N#Cc1ccccc1-c1ccc(C(=O)NCc2ccncc2CN)c(NCCc2cccc(F)c2)n1 [N-{[3-(aminomethyl)(4-pyridyl)]methyl}(6-(2-cyanophenyl)-2-{[2-(3-fluorophenyl)ethyl]amino}(3-pyridyl))carboxamide]
62.6 | O=C(NC[C@H]1CCNC1)c1ccc(-c2ccccc2)nc1NCCc1ccccn1 [N-[((3S)pyrrolidin-3-yl)methyl]{6-phenyl-2-[(2-(2-pyridyl)ethyl)amino](3-pyridyl)}carboxamide]
17.9 | COc1ccccc1-c1ccc(C(=O)NCc2cccnc2)c(NCCc2ccccn2)n1 [{6-(2-methoxyphenyl)-2-[(2-(2-pyridyl)ethyl)amino](3-pyridyl)}-N-(3-pyridylmethyl)carboxamide]
1.49 | NCCn1ccc(CNC(=O)c2ccc(-c3cn[nH]c3)nc2NCCc2cccc(F)c2)n1 [N-{[1-(2-aminoethyl)pyrazol-3-yl]methyl}(2-{[2-(3-fluorophenyl)ethyl]amino}-6-pyrazol-4-yl(3-pyridyl))carboxamide]

More lines, now with the values behind:

Compound | IC50 [µM]
N#Cc1ccccc1-c1ccc(C(=O)NCC2CCCCCN2C(=O)CCCN)c(NCCc2cccc(F)c2)n1 (stereo not drawn) [N-{[1-(4-aminobutanoyl)azaperhydroepin-2-yl]methyl}(6-(2-cyanophenyl)-2-{[2-(3-fluorophenyl)ethyl]amino}(3-pyridyl))carboxamide] | 0.383
Cn1cc(-c2nc(NCCc3cccc(F)c3)c(C(=O)NC[C@H]3CCC(=O)N3CCCN)cc2C#N)cn1 [N-{[(2R)-1-(3-aminopropyl)-5-oxopyrrolidin-2-yl]methyl}(5-cyano-2-{[2-(3-fluorophenyl)ethyl]amino}-6-(1-methylpyrazol-4-yl)(3-pyridyl))carboxamide] | 0.31
Cn1cc(-c2nc(NCCc3cccc(F)c3)c(C(=O)NC[C@H]3CCCN3C(=O)CCCN)cc2Cl)cn1 [N-{[(2R)-1-(4-aminobutanoyl)pyrrolidin-2-yl]methyl}(5-chloro-2-{[2-(3-fluorophenyl)ethyl]amino}-6-(1-methylpyrazol-4-yl)(3-pyridyl))carboxamide] | 0.047
CN1CCN(C(=O)CN)C[C@@H]1CNC(=O)c1ccc(-c2ccccc2C#N)nc1NCCc1cccc(F)c1 [N-{[(2S)-4-(2-aminoacetyl)-1-methylpiperazin-2-yl]methyl}(6-(2-cyanophenyl)-2-{[2-(3-fluorophenyl)ethyl]amino}(3-pyridyl))carboxamide] | 6.97
Cn1cc(-c2nc(NCCc3cccc(F)c3)c(C(=O)NC[C@H]3CCC(=O)N3CCCN)cc2F)cn1 [N-{[(2R)-1-(3-aminopropyl)-5-oxopyrrolidin-2-yl]methyl}(5-fluoro-2-{[2-(3-fluorophenyl)ethyl]amino}-6-(1-methylpyrazol-4-yl)(3-pyridyl))carboxamide] | 0.079
C[C@H](CNC(=O)c1cc(F)c(-c2cnn(C)c2)nc1NCCc1cccc(F)c1)NCCO [N-{(2R)-2-[(2-hydroxyethyl)amino]propyl}(5-fluoro-2-{[2-(3-fluorophenyl)ethyl]amino}-6-(1-methylpyrazol-4-yl)(3-pyridyl))carboxamide] | 0.648
Cn1cc(-c2nc(NCCc3cccc(F)c3)c(C(=O)NC[C@H]3CCCN3C(=O)CCCN)cc2F)cn1 [N-{[(2R)-1-(4-aminobutanoyl)pyrrolidin-2-yl]methyl}(5-fluoro-2-{[2-(3-fluorophenyl)ethyl]amino}-6-(1-methylpyrazol-4-yl)(3-pyridyl))carboxamide] | 0.087
Cn1cc(-c2nc(NCCc3cccc(F)c3)c(C(=O)NCCCNC(=O)CNC(=O)OC(C)(C)C)cc2F)cn1 [2-[(tert-butoxy)carbonylamino]-N-{3-[(5-fluoro-2-{[2-(3-fluorophenyl)ethyl]amino}-6-(1-methylpyrazol-4-yl)(3-pyridyl))carbonylamino]propyl}acetamide] | 0.768
Cn1cc(-c2nc(NCCc3cccc(F)c3)c(C(=O)NCCCNC(=O)OC(C)(C)C)cc2F)cn1 [N-{3-[(tert-butoxy)carbonylamino]propyl}(5-fluoro-2-{[2-(3-fluorophenyl)ethyl]amino}-6-(1-methylpyrazol-4-yl)(3-pyridyl))carboxamide] | 4.5
N#Cc1ccccc1-c1ccc(C(=O)NC[C@H]2CCCC(=O)N2CCCN)c(NCCc2cccc(F)c2)n1 [N-{[(2R)-1-(3-aminopropyl)-6-oxo(2-piperidyl)]methyl}(6-(2-cyanophenyl)-2-{[2-(3-fluorophenyl)ethyl]amino}(3-pyridyl))carboxamide] | 0.026
CC(C)(C)OC(=O)N1CC[C@@H]1CNC(=O)c1cc(F)c(-c2cn[nH]c2)nc1NCCc1cccc(F)c1 [tert-butyl (2R)-2-{[(5-fluoro-2-{[2-(3-fluorophenyl)ethyl]amino}-6-pyrazol-4-yl(3-pyridyl))carbonylamino]methyl}azetidinecarboxylate] | 0.289
Cn1cc(-c2nc(NCCc3cccc(F)c3)c(C(=O)NC[C@H]3CCCN3C(=O)CCNC(=O)OC(C)(C)C)cc2F)cn1 [N-[((2R)-1-{3-[(tert-butoxy)carbonylamino]propanoyl}pyrrolidin-2-yl)methyl](5-fluoro-2-{[2-(3-fluorophenyl)ethyl]amino}-6-(1-methylpyrazol-4-yl)(3-pyridyl))carboxamide] | 0.505
COC(=O)N1CCC[C@H](CNC(=O)c2ccc(-c3ccccc3C#N)nc2NCCc2cccc(F)c2)C1 [methyl (3R)-3-{[(6-(2-cyanophenyl)-2-{[2-(3-fluorophenyl)ethyl]amino}(3-pyridyl))carbonylamino]methyl}piperidinecarboxylate] | 0.718
CNC(=O)CNC(=O)c1ccc(-c2ccc(CO)s2)nc1NCCc1cccc(F)c1 [2-[(2-{[2-(3-fluorophenyl)ethyl]amino}-6-[5-(hydroxymethyl)(2-thienyl)](3-pyridyl))carbonylamino]-N-methylacetamide] | 0.254
C[C@H](CNC(=O)c1cc(F)c(-c2cnn(C)c2)nc1NCCc1cccc(F)c1)NCC(N)=O [N-{(2R)-2-[(carbamoylmethyl)amino]propyl}(5-fluoro-2-{[2-(3-fluorophenyl)ethyl]amino}-6-(1-methylpyrazol-4-yl)(3-pyridyl))carboxamide] | 0.636
CN1CCN(C(=O)CCN)C[C@@H]1CNC(=O)c1ccc(-c2ccccc2C#N)nc1NCCc1cccc(F)c1 [N-{[(2S)-4-(3-aminopropanoyl)-1-methylpiperazin-2-yl]methyl}(6-(2-cyanophenyl)-2-{[2-(3-fluorophenyl)ethyl]amino}(3-pyridyl))carboxamide] | 17
N#Cc1ccccc1-c1ccc(C(=O)NC[C@@H]2CCCCN2C(=O)CCN)c(NCCc2cccc(F)c2)n1 [N-{[(2S)-1-(3-aminopropanoyl)(2-piperidyl)]methyl}(6-(2-cyanophenyl)-2-{[2-(3-fluorophenyl)ethyl]amino}(3-pyridyl))carboxamide] | 0.109
